Data from US5985937A, “Use of 2,4-distributed phenol derivatives as 5-lipoxygenase inhibitors” (priority 1994, dated 1999).

Legend:
5-lipoxygenase (5-LO) = target: T1, 5-lipoxygenase (5-LO) (Homo sapiens, UniProt P09917); experiment: 5-LO inhibiting activity in human polymorphonuclear leukocytes ([14C]-arachidonic acid, A23187; HPLC of eicosanoids); type: cell-based; conditions: for 5-LO inhibiting activity of products of monoiodination of phenol (control tests): in words; for inhibition at 25 µM: 25 μM concentration, read-out: 5-LO inhibitory activity, approximate inhibition percentage; for concentration of biosynthesis products versus concentration of the drug: LTB4, 6-trans-LTB4, 5-HETE, 20-OH-LTB4, FIGS. 3 and 4; for IC50: human polymorphonuclear leukocytes, AA 10 μM, A23187 5 μM, average of five different peaks, read-out: IC50 (concentration of the drug which inhibits 50% of the AA converted by 5-LO)
T1 construct: endogenous in cells; host or cells: human polymorphonuclear leukocytes from donor blood
T1 sequence (P09917 1-674): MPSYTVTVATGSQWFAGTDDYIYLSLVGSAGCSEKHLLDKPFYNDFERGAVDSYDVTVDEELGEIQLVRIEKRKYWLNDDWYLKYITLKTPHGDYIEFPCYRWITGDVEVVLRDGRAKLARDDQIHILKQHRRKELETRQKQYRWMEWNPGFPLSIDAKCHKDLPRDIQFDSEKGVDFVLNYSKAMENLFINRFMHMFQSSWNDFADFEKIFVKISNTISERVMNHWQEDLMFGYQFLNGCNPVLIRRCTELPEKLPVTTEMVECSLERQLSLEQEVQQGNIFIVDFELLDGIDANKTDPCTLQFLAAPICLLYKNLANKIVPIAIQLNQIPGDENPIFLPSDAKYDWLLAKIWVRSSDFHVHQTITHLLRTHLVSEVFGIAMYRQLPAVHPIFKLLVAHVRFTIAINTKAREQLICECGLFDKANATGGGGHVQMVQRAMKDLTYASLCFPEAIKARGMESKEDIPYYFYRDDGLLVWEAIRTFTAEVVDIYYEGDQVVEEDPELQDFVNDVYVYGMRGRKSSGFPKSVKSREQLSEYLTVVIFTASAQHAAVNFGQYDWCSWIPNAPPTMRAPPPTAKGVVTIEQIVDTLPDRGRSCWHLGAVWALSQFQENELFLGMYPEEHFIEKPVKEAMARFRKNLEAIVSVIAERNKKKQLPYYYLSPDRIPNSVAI
Description: In order to show the 5-LO inhibiting activity of the products of the present invention, a specific test based on human polymorphonuclear leukocytes is chosen.
5-LO Inhibiting Activity in Polymorphonuclear Leukocytes
Blood was obtained from donors which had not received medication during the ten days previous to the extraction. The blood was treated with an anticoagulant (ACD-A) and was centrifuged at 200 g during 12 min at room temperature, separating the supernatant. A solution of Dextran T-500 in physiological serum was added to the pellet, in order to obtain a final concentration of 0.6% w/v, and was allowed to sediment during 40 min. The supernatant was centrifuged at 180 g during 10 min at room temperature. The pellet was resuspended in 5 ml of Hank's buffer, pH 7.4. After the addition of 3 ml of Lymphoprep, the suspension was centrifuged at 450 g during 30 min, and the layers of supernatant were discarded. The next step was the lysis of the erythrocytes present by adding 2 ml of a saline solution. The resulting volume was adjusted to 10 ml with Hank's buffer, pH 7.4. The solution was centrifuged during 10 min at 180 g; the supernatant was discarded and the resulting pellet was resuspended in 1-2 ml of Hank's buffer, pH 7.4. The cellular density was determined using a haemocytometer using the procedure of microcollection Unopette to determine the levels of platelet contamination. Cellular density was adjusted to 2×10^7 cells/ml with Hank's buffer, pH 7.4 and CaCl2 was added to a final concentration of 1.5 mM.
Aliquots (0.5 ml) of the polymorphonuclear leukocytes suspensions, obtained as described in part (a), were incubated during 5 min at 37° C. in the absence (control) and in the presence of three different concentrations of each drug. Afterwards an ethanol solution of [^14 C]-arachidonic acid and A23187 ionophore was added to obtain a final concentration of 10 and 5 μM, respectively. After 5 min of incubation the reaction was stopped by addition of 0.5 ml of ice-cold ethanol. Samples were centrifuged during 2 min at 1500 g, and the supernatants were kept at -80° C. until analyzed. Controls were carried out using the polymorphonuclear leukocyte suspensions aliquots in the presence of the solvent (DMSO) only.
The analysis of the products from the transformation of arachidonic acid through the action of the lipoxygenase (these products being the eicosanoids) was carried out using high pressure liquid chromatography (HPLC), in a reverse phase column (Ultrasphere-ODS, Beckman), injecting 500 μl of the supernatants obtained from the incubations. Elution was carried out using an isocratic mix of mathanol:water:triethylamine:trifluoroacetic acid, 75:25:0.05:0.10, with a flux of 1 ml/min. Detection was carried out with a radioactivity detector with a liquid scintillation cell on-line coupled with the column.

dioxygenases = conditions: background statement; cited from earlier work
5-LO = conditions: background statement; cited from earlier work
[1] = background statement; cited from earlier work

| Compound | inhibition at 25 µM (5-lipoxygenase (5-LO)) | further results |
| --- | --- | --- |
| Oc1ccccc1I [Bobel 2-iodophenol, 2-iodophenol, reference compound] | – | 5-LO inhibiting activity of products of monoiodination of phenol (control tests) (5-lipoxygenase (5-LO)): negligible activity |
| Oc1cccc(I)c1 [Bobel 3-iodophenol, 3-iodophenol, reference compound] | – | 5-LO inhibiting activity of products of monoiodination of phenol (control tests) (5-lipoxygenase (5-LO)): negligible activity |
| Oc1ccc(I)cc1 [Bobel 4-iodophenol, 4-iodophenol, reference compound] | – | 5-LO inhibiting activity of products of monoiodination of phenol (control tests) (5-lipoxygenase (5-LO)): negligible activity |
| CC(C)(C)c1ccc(O)c(I)c1 [Bobel-2, 4-tert-butyl-2-iodophenol] | 80% | – |
| CC(C)(C)c1cc(I)ccc1O [Bobel-3, 2-tert-butyl-4-iodophenol] | 96% | – |
| CC(C)c1cc(I)cc(C(C)C)c1O [Bobel-4, 2,6-diisopropyl-4-iodophenol] | 94% | – |
| CC(C)(C)c1cc(I)c(O)c(I)c1 [Bobel-15, 4-tert-butyl-2,6-diiodophenol] | 85% | – |
| Oc1c(I)cc(-c2ccccc2)cc1I [Bobel-16, 4-phenyl-2,6-diiodophenol] | 97% | – |
| Oc1c(I)cc(C(F)(F)F)cc1I [Bobel-20, 4-trifluoromethyl-2,6-diiodophenol] | 100% | – |
| Cc1c(I)cc(I)c(O)c1I [Bobel-25, 3-methyl-2,4-6-triiodophenol] | 97% | – |
| Oc1c(I)cc(I)c(F)c1I [Bobel-29, 3-fluoro-2,4,6-triiodophenol] | 100% | – |
| Oc1c(I)cc(I)c(Cl)c1I [Bobel-30, 3-chloro-2,4,6-triiodophenol] | 90% | – |
| CC(Cc1ccc(O)c(O)c1)C(C)Cc1ccc(O)c(O)c1 (centres unmarked) [NDGA, nordihydroguayaretic acid] | – | inhibition of dioxygenases (dioxygenases): inhibitor of all dioxygenases; 5-LO inhibition (5-LO): potent 5-LO inhibitor |
| CC(C(=O)O)c1ccc2oc(-c3ccc(Cl)cc3)nc2c1 (centres unmarked) [benoxaprofen, reference compound] | – | concentration of biosynthesis products versus concentration of the drug (5-lipoxygenase (5-LO)): decreased in approximately linear with the concentration of the drug used; IC50 (5-lipoxygenase (5-LO)): 92 µM; toxicity [1]: much too toxic |
| CC(=O)N1CCN(c2ccc(OCC3COC(Cn4ccnc4)(c4ccc(Cl)cc4Cl)O3)cc2)CC1 (centres unmarked) [ketaconozale, ketoconazole, reference compound] | – | concentration of biosynthesis products versus concentration of the drug (5-lipoxygenase (5-LO)): decreased in approximately linear with the concentration of the drug used; IC50 (5-lipoxygenase (5-LO)): 102 µM |
| COc1c(OC)c(OC(C)=O)c2cc(Cl)ccc2c1OC(C)=O [lonapalene] | – | toxicity [1]: much too toxic |

More lines, main results first:

| inhibition at 25 µM (5-lipoxygenase (5-LO)) | Compound | further results |
| --- | --- | --- |
| 74% | CCc1cc(I)cc(I)c1O [Bobel-7, 2-ethyl-4,6-diiodophenol] | – |
| 95% | CC(C)c1cc(I)cc(I)c1O [Bobel-8, 2-isopropyl-4,6-diiodophenol] | – |
| 87% | CC(C)(C)c1cc(I)cc(I)c1O [Bobel-9, 2-tert-butyl-4,6-diiodofenol] | – |
| 73% | Oc1c(Cl)cc(I)cc1I [Bobel-10, 2-chloro-4,6-diiodophenol] | – |
| 88% | Oc1c(Br)cc(I)cc1I [Bobel-11, 2-bromo-4,6-diiodophenol] | – |
| 97% | Oc1c(I)cc(I)cc1C(F)(F)F [Bobel-12, 2-trifluoromethyl-4,6-diiodophenol] | – |
| 85% | CC(C)c1cc(I)c(O)c(I)c1 [Bobel-14, 4-isopropyl-2,6-diiodophenol] | – |
| 80% | Oc1c(I)cc(Cl)cc1I [Bobel-18, 4-chloro-2,6-diiodophenol] | – |
| 94% | CCc1c(I)cc(I)c(O)c1I [Bobel-26, 3-ethyl-2,4,6-triiodophenol] | – |
